Experimental data reported in patent US8278485B2, “Process for the production of 2-[4-(3- and 2-fluorobenzyloxy) benzylamino] propanamides” (Newron Pharmaceuticals S.p.A., priority 2006, dated 2012).

Key:
mice [1] = assay: Amphetamine plus chlordiazepoxide-induced hyperlocomotion in mice; format: in vivo
Procedure: FIG. 1 provides total locomotor activity over 30 min. Mice were treated with ralfinamide (10; 30 and 60 mg/kg, po); or saline and returned to their home cage. After 30 min they received an injection of Amph (2.5 mg/kg; ip); Amph/CDP mixture (2.5 and 3.125 mg/kg; ip) or saline immediately prior to be placed in the test cage. Locomotor activity was recorded for 30 min.
Amphetamine Plus Chlordiazepoxide-Induced Hyperlocomotion in Mice
The anti mania activity, predictive of efficacy in bipolar disorders, was measured using the “Amphetamine plus chlordiazepoxide-induced hyperlocomotion in mice” model according to the following procedure.
In this model, mice are treated with a mixture of d-amphetamine plus an anxiolytic dose of the benzodiazepine, chlordiazepoxide (Rushton R and Steinberg H. Nature 1966; 211: 1312-3; R. Arban, et al. Behavioural Brain Research, 158: 123-132). The model has been claimed to mimic some aspects of mania in bipolar disorder. Importantly, the hyperactivity induced by the mixture of d-amphetamine and chlordiazepoxide could be prevented by prior administration of the established mood stabilizer, lithium, as well as other mood stabilizers drugs (e.g. magnesium valproate and carbamazepine). Therefore, this model has face and predictive validity as a model of bipolar disorders and represents a valuable tool to determine, if a test compound could be a potential mood stabilizer drug candidate.
D-amphetamine (Amph) (2.5 mg/kg ip) plus chlordiazepoxide hydrochloride (CDP) (3 mg/kg ip) were administered to male Albino Swiss mice (25-32 g) in a volume of 10 ml/kg. The locomotor activity was recorded using an automated Activity Cage LE 881 (Panlab) (45×45 cm). This system detects animal movements from 2 levels of 4 side infrared sensors placed all around the square cage. Mice were pretreated with the test compound (0.5-60 mg/kg po) and 30 min later, with Amph (2.5 mg/kg ip) or Amph jointly with CDP (3 mg/kg ip) and were placed individually in the motor activity cages. The locomotor activity was measured in terms of total distance travelled (cm) over a period of 30 min. Each group consisted of 8-10 mice.
Statistical analysis: a two-way analysis of variance (ANOVA) with Amph treatment factor and drug treatment factor was performed. Bonferroni's procedure was used for multiple comparison post hoc analysis.
D-amphetamine-chlordiazepoxide administration induced a significant increase in locomotor activity.

[2] = Cytotoxicity assay in human neuroblastoma cell line SH-SY-5Y; format: cell-based; conditions: SH-SY-5Y neuroblastoma cells, 24 hours incubation, Alamar Blue, concentration inducing 50% of mortality
Procedure: Cytotoxicity Assay in Human Neuroblastoma Cell Line SH-SY-5Y
At time zero, the cells were seeded at 1.10^4/cm^2 in 96 well plates in DMEM growth medium+10% heat inactivated FBS+2 mM 1-Glutamine+100 U/mL-100 μg/mL Penicillin/Streptomycin.
After 72 hours at subconfluent phase of growth, the medium was removed and cells were incubated for 24 hours at 37° C. in 180 μl of neurobasal medium+2 mM 1-Glutamine (Life Technologies) with or without test compounds (20 μl, at least 5 concentrations in triplicate).
At the end of incubation, 20 μl of Alamar Blue dye (AlamarBlue™ Assay Kit, Promega) were directly added to the cell medium.
Four hours after, the cytotoxicity was assessed by measuring the fluorescence at 530 nm excitation and 595 nm emission using Tecan Spectrafluor plate reader.
Before and at the end of the treatment, the cultures were monitored microscopically by an Olympus IX70 inverted light microscope matched to an Image Analyzer (Image Pro Plus, 5.1) to evaluate the cellular morphology.
Results are expressed in Table 1 as concentration inducing 50% of mortality.

CYP2D6 = biological target: T1, CYP2D6 (Homo sapiens, UniProt P10635); assay: Cytochrome P450 assay (Gentest Kit), CYP2D6; format: in vitro ADME; conditions: human recombinant isoenzyme
T1 construct: purchased Gentest
T1 sequence (P10635 whole entry): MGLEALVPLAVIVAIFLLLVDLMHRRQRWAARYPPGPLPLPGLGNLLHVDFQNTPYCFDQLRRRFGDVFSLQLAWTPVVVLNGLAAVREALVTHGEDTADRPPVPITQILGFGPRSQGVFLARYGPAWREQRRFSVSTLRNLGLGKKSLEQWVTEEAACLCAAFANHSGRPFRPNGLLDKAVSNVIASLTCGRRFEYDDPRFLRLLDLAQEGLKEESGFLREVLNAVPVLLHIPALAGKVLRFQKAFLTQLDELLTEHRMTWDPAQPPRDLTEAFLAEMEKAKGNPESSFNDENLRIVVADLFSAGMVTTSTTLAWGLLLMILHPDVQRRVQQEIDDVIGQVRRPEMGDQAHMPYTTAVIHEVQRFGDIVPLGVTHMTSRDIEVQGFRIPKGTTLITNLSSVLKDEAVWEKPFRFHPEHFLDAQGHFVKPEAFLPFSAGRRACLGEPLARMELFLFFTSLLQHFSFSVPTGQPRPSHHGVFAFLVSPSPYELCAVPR
Procedure: (§1) Inhibition of the five most important Cytochrome P450 isoforms (CYP1A2, CYP2C9, CYP2C19, CYP2D6 and CYP3A4), involved in drug metabolism, was measured using specific substrates that become fluorescent upon CYP metabolism (Gentest Kit assay).
(§2) Compounds were tested in a 96-well plate containing incubation/NADPH regenerating buffer. Specific human recombinant isoenzymes and substrates were added and incubated at 37° C. for 15 minutes for CYP1A2/CEC, […], 45 minutes for CYP2C9/MFC and 30 minutes for the others CYP450.
3[2(N,N-diethyl-N-mwthylamino) ethyl]-7-methoxy-4-methylcoumarin (CYP2D6)

HERG channel = HERG channel (Homo sapiens, UniProt Q12809); assay: HERG current in transfected CHO cell lines
HERG channel, sequence (Q12809 whole entry): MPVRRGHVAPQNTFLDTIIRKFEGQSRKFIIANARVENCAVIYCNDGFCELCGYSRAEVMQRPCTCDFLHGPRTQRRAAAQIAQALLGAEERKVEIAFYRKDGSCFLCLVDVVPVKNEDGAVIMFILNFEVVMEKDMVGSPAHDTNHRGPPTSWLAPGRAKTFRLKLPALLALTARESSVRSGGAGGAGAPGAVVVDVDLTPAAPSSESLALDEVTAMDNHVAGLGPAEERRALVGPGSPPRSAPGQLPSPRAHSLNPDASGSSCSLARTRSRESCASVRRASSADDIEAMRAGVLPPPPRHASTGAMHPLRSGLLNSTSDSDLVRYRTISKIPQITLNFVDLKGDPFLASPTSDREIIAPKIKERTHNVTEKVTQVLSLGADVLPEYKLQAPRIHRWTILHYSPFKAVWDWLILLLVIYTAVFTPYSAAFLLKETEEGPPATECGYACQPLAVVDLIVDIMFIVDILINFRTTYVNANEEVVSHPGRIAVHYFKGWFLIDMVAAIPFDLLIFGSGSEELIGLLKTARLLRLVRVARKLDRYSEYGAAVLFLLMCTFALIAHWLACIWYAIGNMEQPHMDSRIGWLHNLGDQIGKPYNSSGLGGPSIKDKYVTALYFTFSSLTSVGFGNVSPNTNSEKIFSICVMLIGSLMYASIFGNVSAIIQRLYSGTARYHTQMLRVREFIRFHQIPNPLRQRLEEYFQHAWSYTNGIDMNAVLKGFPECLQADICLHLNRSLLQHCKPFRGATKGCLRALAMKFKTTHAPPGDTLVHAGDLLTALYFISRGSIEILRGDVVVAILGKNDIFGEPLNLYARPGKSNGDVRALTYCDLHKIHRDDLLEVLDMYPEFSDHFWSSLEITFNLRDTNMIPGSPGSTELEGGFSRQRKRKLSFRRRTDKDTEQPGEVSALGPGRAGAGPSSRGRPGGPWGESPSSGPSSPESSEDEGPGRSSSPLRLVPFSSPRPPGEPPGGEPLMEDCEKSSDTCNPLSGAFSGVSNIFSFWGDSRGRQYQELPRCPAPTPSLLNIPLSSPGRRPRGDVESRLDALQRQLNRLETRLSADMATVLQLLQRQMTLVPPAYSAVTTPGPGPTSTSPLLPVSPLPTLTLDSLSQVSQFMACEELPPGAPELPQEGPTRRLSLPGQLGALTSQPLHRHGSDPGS
Procedure: The inhibition of HERG current was tested in CHO cells stably expressing recombinant HERG channel.
To evaluate the effect of the test compounds on HERG currents, cells were clamped at −80 Mv, depolarised to 0 mV for 5 seconds allowing activation of HERG current and repolarised to −50 mV during 5 seconds allowing HERG tail current to deactivate. This procedure was repeated at a frequency of 0.06 Hz. The current amplitude upon repolarisation (HERG tail current) was measured before and after exposure to the test compound.
Inhibition of current was calculated as the difference between the amplitude of HERG tail current amplitude measured at the end of external bath perfusion period and HERG tail current measured at the end of test compound perfusion period (when steady-state effect is reached) divided by control HERG tail current.
Drug concentration-inhibition curves were obtained by plotting tonic blocks versus drug concentrations. Dose-response curves were fitted to the tonic block data, according to the logistic equation: y=A2+(A1−A2)/[1+(x/IC50)^p].

mice [3] = assay: Maximal Electroshock Test (MES) in mice; format: in vivo
Procedure: Maximal Electroshock Test (MES) in Mice
The maximal electroshock test (MES) is used commonly in the screening of anti-epileptic drugs in rodent models.
Animals and Apparatus: Male CD1 mice weighing 25 g were used. […] The stimulus was delivered intra-aurally through clip electrodes in mice (0.7 seconds of a 40 mA shock, with a pulse train of 80 Hz having a pulse duration of 0.4 ms). The acute effect of compounds administered intraperitoneally or orally 15-60 minutes before MES induction were examined and compared with a vehicle control group. Ten mice were studied per group. Complete suppression of the hindlimb tonic extensor component of seizures was taken as evidence of anticonvulsant activity.
The compounds of the invention were administered orally or intraperitoneally at the doses of 3-30 mg/kg.
The results are expressed in Tables 3 and 4 as % of protection.

CYP2C9 = biological target: T2, CYP2C9 (Homo sapiens, UniProt P11712); assay: Cytochrome P450 assay (Gentest Kit), CYP2C9; format: in vitro ADME; conditions: human recombinant isoenzyme
T2 construct: purchased Gentest
T2 sequence (P11712 whole entry): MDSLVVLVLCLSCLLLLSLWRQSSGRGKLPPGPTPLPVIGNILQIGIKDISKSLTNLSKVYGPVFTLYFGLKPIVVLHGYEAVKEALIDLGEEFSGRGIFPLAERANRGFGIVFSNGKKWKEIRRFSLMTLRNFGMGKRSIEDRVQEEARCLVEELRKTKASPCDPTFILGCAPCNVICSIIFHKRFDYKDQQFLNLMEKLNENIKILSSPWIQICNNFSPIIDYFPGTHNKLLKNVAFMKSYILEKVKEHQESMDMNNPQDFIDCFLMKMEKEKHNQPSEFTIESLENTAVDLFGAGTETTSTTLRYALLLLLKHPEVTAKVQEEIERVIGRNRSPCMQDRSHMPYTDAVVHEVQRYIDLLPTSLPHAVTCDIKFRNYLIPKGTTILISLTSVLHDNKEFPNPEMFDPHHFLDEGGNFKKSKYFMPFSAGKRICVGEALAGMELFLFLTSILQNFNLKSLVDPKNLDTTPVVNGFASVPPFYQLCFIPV
Procedure: as §1, §2
7-methoxy-4-trifluoromethylcoumarin (CYP2C9),

CYP2C19 = biological target: T3, CYP2C19 (Homo sapiens, UniProt P33261); assay: Cytochrome P450 assay (Gentest Kit), CYP2C19; format: in vitro ADME; conditions: human recombinant isoenzyme
T3 construct: purchased Gentest
T3 sequence (P33261 whole entry): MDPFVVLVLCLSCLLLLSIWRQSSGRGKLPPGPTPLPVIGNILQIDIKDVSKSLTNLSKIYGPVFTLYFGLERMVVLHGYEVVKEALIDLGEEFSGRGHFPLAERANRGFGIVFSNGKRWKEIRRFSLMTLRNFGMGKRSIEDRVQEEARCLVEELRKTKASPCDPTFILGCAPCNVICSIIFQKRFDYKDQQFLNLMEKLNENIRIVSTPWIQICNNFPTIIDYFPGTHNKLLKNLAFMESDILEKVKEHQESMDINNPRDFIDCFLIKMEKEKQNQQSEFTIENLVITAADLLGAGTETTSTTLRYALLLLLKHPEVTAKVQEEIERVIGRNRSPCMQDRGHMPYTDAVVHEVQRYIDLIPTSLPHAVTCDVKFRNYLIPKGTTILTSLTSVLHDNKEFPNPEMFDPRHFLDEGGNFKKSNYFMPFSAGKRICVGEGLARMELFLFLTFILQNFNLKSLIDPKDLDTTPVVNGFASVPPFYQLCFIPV
Procedure: as §1, §2
(§3) The specific substrates were the following: 3-cyano-7-ethoxycoumarin (CYP2C19 and CYP1A2),

CYP1A2 = biological target: T4, CYP1A2 (Homo sapiens, UniProt P05177); assay: Cytochrome P450 assay (Gentest Kit), CYP1A2; format: in vitro ADME; conditions: human recombinant isoenzyme
T4 construct: purchased Gentest
T4 sequence (P05177 1-516): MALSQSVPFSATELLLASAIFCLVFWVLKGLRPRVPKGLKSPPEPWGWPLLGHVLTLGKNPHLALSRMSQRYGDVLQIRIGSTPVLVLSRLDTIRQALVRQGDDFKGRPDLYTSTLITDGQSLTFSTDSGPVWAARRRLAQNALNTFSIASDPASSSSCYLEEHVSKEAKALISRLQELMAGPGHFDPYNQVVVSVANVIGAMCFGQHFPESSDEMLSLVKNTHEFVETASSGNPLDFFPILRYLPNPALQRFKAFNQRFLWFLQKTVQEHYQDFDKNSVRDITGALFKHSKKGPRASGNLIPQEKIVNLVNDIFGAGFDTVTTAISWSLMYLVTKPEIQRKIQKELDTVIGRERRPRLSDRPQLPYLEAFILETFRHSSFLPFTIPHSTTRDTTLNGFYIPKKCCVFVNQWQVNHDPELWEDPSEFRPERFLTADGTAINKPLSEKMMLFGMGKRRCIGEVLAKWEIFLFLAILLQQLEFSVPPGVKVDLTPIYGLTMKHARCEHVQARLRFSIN
Procedure: as §1, §2, §3

CYP3A4 = biological target: T5, CYP3A4 (Homo sapiens, UniProt P08684); assay: Cytochrome P450 assay (Gentest Kit), CYP3A4; format: in vitro ADME; conditions: human recombinant isoenzyme, Table 1
T5 construct: purchased Gentest
T5 sequence (P08684 whole entry): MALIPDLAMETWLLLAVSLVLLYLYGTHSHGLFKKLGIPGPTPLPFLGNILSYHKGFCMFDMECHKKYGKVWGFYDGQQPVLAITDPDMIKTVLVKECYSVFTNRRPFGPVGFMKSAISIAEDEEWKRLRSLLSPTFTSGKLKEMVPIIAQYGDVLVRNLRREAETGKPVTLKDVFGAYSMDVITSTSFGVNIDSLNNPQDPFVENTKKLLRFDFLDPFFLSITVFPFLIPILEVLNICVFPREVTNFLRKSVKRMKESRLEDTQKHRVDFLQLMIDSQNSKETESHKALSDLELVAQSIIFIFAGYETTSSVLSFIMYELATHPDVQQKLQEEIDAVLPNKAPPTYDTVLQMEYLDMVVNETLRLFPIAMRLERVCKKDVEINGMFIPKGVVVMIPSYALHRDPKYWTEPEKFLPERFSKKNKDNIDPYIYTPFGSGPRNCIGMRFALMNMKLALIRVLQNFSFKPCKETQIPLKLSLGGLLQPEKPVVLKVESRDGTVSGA
Procedure: as §1, §2
benzylphenylcoumarin (CYP3A4)

Compound	IC50 at 24 h [2]	IC50 (CYP2D6)	IC50 (HERG channel)	MES Protection % (mice [3]; mice, 10 mg/kg p.o.)	MES (head blank; protection) (mice [3]; mice, 20 mg/kg p.o.)	IC50 (CYP2C9)	IC50 (CYP2C19)	IC50 (CYP1A2)	IC50 (CYP3A4)	MES % protection (mice [3]; mice, 3 mg/kg ip)	MES % protection (mice [3]; mice, 10 mg/kg ip)	MES % protection (mice [3]; mice, 30 mg/kg ip)	also measured
C[C@H](NCc1ccc(OCc2ccccc2F)cc1)C(N)=O [ralfinamide, (S)-2-[4-(2-fluorobenzyloxy)-benzylamino]propanamide]													total locomotor activity over 30 min, Bonferroni versus Amph/CDP mixture (mice [1]; 30 mg/kg po): statistical difference; total locomotor activity over 30 min, Bonferroni versus Amph alone (mice [1]; 60 mg/kg po): statistical difference; total locomotor activity over 30 min, Bonferroni versus Amph/CDP mixture (mice [1]; 60 mg/kg po): statistical difference; hyperactivity induced by Amph/CDP mixture (locomotor activity) (mice [1]; orally administered, 30 min before Amph/CDP ip): significantly decreasing the hyperactivity
CS(=O)(=O)O.C[C@H](NCc1ccc(OCc2ccccc2F)cc1)C(N)=O [Ralfinamide methanesulfonate, (S)-2-[4-(2-fluorobenzyloxy)benzylamino]propanamide methanesulfonate]	> 300 µM	> 40 µM	18 µM	60%	90%	> 40 µM	> 40 µM	> 40 µM					
C[C@H](NCc1ccc(OCc2ccccc2F)c(Cc2ccccc2F)c1)C(N)=O [Impurity IId, (S)-2-[3-(2-fluorobenzyl)-4-(2-fluorobenzyloxy)-benzylamino]propanamide methanesulfonate]	15 µM	0.92 µM	2.66 µM	0%	0%	8.01 µM	1.89 µM	> 40 µM	0.05 µM				MES dead/live (mice [3]; mice, 10 mg/kg p.o.): 0/10; MES dead/live (mice [3]; mice, 20 mg/kg p.o.): 0/10; protection from convulsions in MES test (mice [3]; mice, p.o. at 10 and 20 mg/kg): doesn't protect
CS(=O)(=O)O.C[C@H](NCc1ccc(OCc2cccc(F)c2)cc1)C(N)=O [Safinamide methanesulfonate, (S)-2-[4-(3-fluorobenzyloxy)benzylamino]propanamide methanesulfonate]	248 µM	> 40 µM	27 µM			> 40 µM	23.9 µM	> 40 µM		50%	100%	100%	
C[C@H](NCc1ccc(OCc2cccc(F)c2)c(Cc2cccc(F)c2)c1)C(N)=O [Impurity IIc, (S)-2-[3-(3-fluorobenzyl)-4-(3-fluorobenzyloxy)-benzylamino]propanamide methanesulfonate]	6.7 µM	0.77 µM	1.2 µM			7.29 µM	0.42 µM	> 40 µM	0.05 µM	0%	0%	0%	MES dead/live (mice [3]; mice, 3 mg/kg ip): 5/10; MES dead/live (mice [3]; mice, 10 mg/kg ip): 4/10; MES dead/live (mice [3]; mice, 30 mg/kg ip): 4/10; pharmacological activity, i.e. protection from convulsions, in MES test (mice [3]; mice, ip, from 3 mg/kg): without any pharmacological activity; mortality in the mice MES test (mice [3]; starting from 3 mg/kg ip): increases
